Reference: publication PMC12669040, “Tumour-specific STING agonist synthesis via a two-component prodrug system” (Nature Chemistry, 2025)
Values joined by “and” are separate entries in the source; they are usually repeats but may differ in a detail not shown here. Identical values can stand only once.

Legend:
[1] = Colorimetric alkylation rate constant assay with thiol N1; format: physicochemical; details: for remaining [A]: N1 from calibration curve (N1 in uM); for remaining [A] / remaining [B]: in µM
[2] = Colorimetric alkylation rate constant assay with TNB^2− as non-specific thiol; format: physicochemical; set-up: second-order: unit not given here; details: for remaining [B]: in µM
[3] = Time 2891 sec, [B]0 = 250, Replicates 1-3
[4] = Time 3071 sec, [B]0 = 250, Replicates 1-3
[5] = Time 3252 sec, [B]0 = 250, Replicates 1-3
[6] = Time 3433 sec, [B]0 = 250, Replicates 1-3
[7] = Time 3613 sec, [B]0 = 250, Replicates 1-3

- remaining [A] ([1]; Replicate 1, time 576 sec): 79.3821
- remaining [B] ([1]; Replicate 1, time 576 sec, [B]0 = 250): 225.262
- remaining [A] ([1]; Replicate 1, time 606 sec): 78.3561
- remaining [B] ([1]; Replicate 1, time 606 sec, [B]0 = 250): 224.236
- remaining [A] ([1]; Replicate 2, time 576 sec): 78.9353
- remaining [B] ([1]; Replicate 2, time 576 sec, [B]0=250): 225.794
- remaining [A] ([1]; Replicate 2, time 606 sec): 77.6031
- remaining [B] ([1]; Replicate 2, time 606 sec, [B]0=250): 224.461
- remaining [A] ([1]; Replicate 3, time 576 sec): 80.3332
- remaining [B] ([1]; Replicate 3, time 576 sec, [B]0=250): 225.786
- remaining [A] ([1]; Replicate 3, time 606 sec): 79.3051
- remaining [B] ([1]; Replicate 3, time 606 sec, [B]0=250): 224.758
- remaining [B] ([1]; time 0 sec, [B]0 = 250, replicates 1-3): 246.537 and 247.093 and 245.89
- remaining [B] ([1]; time 30 sec, [B]0 = 250, replicates 1-3): 245.319 and 244.842 and 244.643
- remaining [B] ([1]; time 60 sec, [B]0 = 250, replicates 1-3): 243.453 and 243.816 and 242.942
- remaining [B] ([1]; time 91 sec, [B]0 = 250, replicates 1-3): 242.316 and 242.334 and 241.723
- remaining [B] ([1]; time 121 sec, [B]0 = 250, replicates 1-3): 241.072 and 241.108 and 240.278
- remaining [B] ([1]; time 151 sec, [B]0 = 250, replicates 1-3): 240.152 and 239.968 and 239.257
- remaining [B] ([1]; time 182 sec, [B]0 = 250, replicates 1-3): 239.232 and 238.714 and 238.265
- remaining [B] ([1]; time 212 sec, [B]0 = 250, replicates 1-3): 238.15 and 237.631 and 237.245
- remaining [B] ([1]; time 242 sec, [B]0 = 250, replicates 1-3): 236.96 and 236.491 and 236.366
- remaining [B] ([1]; time 273 sec, [B]0 = 250, replicates 1-3): 235.85 and 235.38 and 235.431
- remaining [B] ([1]; time 303 sec, [B]0 = 250, replicates 1-3): 234.308 and 234.268 and 234.354
- remaining [B] ([1]; time 333 sec, [B]0 = 250, replicates 1-3): 233.361 and 233.157 and 233.277
- remaining [B] ([1]; time 364 sec, [B]0 = 250, replicates 1-3): 232.279 and 232.188 and 232.341
- remaining [B] ([1]; time 394 sec, [B]0 = 250, replicates 1-3): 231.197 and 231.247 and 230.981
- remaining [B] ([1]; time 424 sec, [B]0 = 250, replicates 1-3): 230.602 and 230.05 and 230.442
- remaining [B] ([1]; time 454 sec, [B]0 = 250, replicates 1-3): 229.357 and 229.309 and 229.478
- remaining [B] ([1]; time 485 sec, [B]0 = 250, replicates 1-3): 228.681 and 228.084 and 229.195
- remaining [B] ([1]; time 515 sec, [B]0 = 250, replicates 1-3): 227.112 and 227.086 and 227.097
- remaining [B] ([1]; time 545 sec, [B]0 = 250, replicates 1-3): 226.462 and 226.317 and 225.935
- remaining [B] ([2]; Replicate 1, 723 sec, [B]0 = 250): 244.563
- remaining [B] ([2]; Replicate 1, 903 sec, [B]0 = 250): 244.311
- remaining [B] ([2]; Replicate 1, 1084 sec, [B]0 = 250): 243.946
- remaining [B] ([2]; Replicate 1, 1265 sec, [B]0 = 250): 243.644
- remaining [B] ([2]; Replicate 1, 1445 sec, [B]0 = 250): 243.291
- remaining [B] ([2]; Replicate 1, 1626 sec, [B]0 = 250): 242.976
- remaining [B] ([2]; Replicate 1, 1806 sec, [B]0 = 250): 242.497
- remaining [B] ([2]; Replicate 1, 1988 sec, [B]0 = 250): 242.245
- remaining [B] ([2]; Replicate 1, 2168 sec, [B]0 = 250): 242.005
- remaining [B] ([2]; Replicate 1, 2349 sec, [B]0 = 250): 241.552
- remaining [B] ([2]; Replicate 1, 2530 sec, [B]0 = 250): 241.262
- remaining [B] ([2]; Replicate 1, 2710 sec, [B]0 = 250): 240.985
- remaining [B] ([2]; Replicate 2, 542 sec, [B]0=250): 244.808
- remaining [B] ([2]; Replicate 2, 723 sec, [B]0=250): 244.493
- remaining [B] ([2]; Replicate 2, 903 sec, [B]0=250): 244.204
- remaining [B] ([2]; Replicate 2, 1084 sec, [B]0=250): 243.889
- remaining [B] ([2]; Replicate 2, 1265 sec, [B]0=250): 243.586
- remaining [B] ([2]; Replicate 2, 1445 sec, [B]0=250): 243.259
- remaining [B] ([2]; Replicate 2, 1626 sec, [B]0=250): 242.931
- remaining [B] ([2]; Replicate 2, 1806 sec, [B]0=250): 242.666
- remaining [B] ([2]; Replicate 2, 1988 sec, [B]0=250): 242.326
- remaining [B] ([2]; Replicate 2, 2168 sec, [B]0=250): 242.036
- remaining [B] ([2]; Replicate 2, 2349 sec, [B]0=250): 241.734
- remaining [B] ([2]; Replicate 2, 2530 sec, [B]0=250): 241.457
- remaining [B] ([2]; Replicate 2, 2710 sec, [B]0=250): 241.142
- remaining [B] ([2]; Replicate 3, 723 sec, [B]0=250): 244.853
- remaining [B] ([2]; Replicate 3, 903 sec, [B]0=250): 244.526
- remaining [B] ([2]; Replicate 3, 1084 sec, [B]0=250): 244.173
- remaining [B] ([2]; Replicate 3, 1265 sec, [B]0=250): 243.82
- remaining [B] ([2]; Replicate 3, 1445 sec, [B]0=250): 243.568
- remaining [B] ([2]; Replicate 3, 1626 sec, [B]0=250): 243.24
- remaining [B] ([2]; Replicate 3, 1806 sec, [B]0=250): 242.913
- remaining [B] ([2]; Replicate 3, 1988 sec, [B]0=250): 242.686
- remaining [B] ([2]; Replicate 3, 2168 sec, [B]0=250): 242.333
- remaining [B] ([2]; Replicate 3, 2349 sec, [B]0=250): 241.955
- remaining [B] ([2]; Replicate 3, 2530 sec, [B]0=250): 241.627
- remaining [B] ([2]; Replicate 3, 2710 sec, [B]0=250): 241.35
- remaining [B] [2, 3]: 241.06 and 240.569 and 240.801
- remaining [B] [2, 4]: 240.783 and 240.304 and 240.512
- remaining [B] [2, 5]: 240.481 and 240.077 and 240.209
- remaining [B] [2, 6]: 240.065 and 239.636 and 239.894
- remaining [B] [2, 7]: 239.851
SMILES: O=C(CCl)Nc1ccc(F)cc1 [Compound C3]
- second-order ([1]; Replicate 1, time 576 sec, second-order plot value): 0.001145
- second-order ([1]; Replicate 1, time 606 sec, second-order plot value): 0.001203
- second-order ([1]; Replicate 2, time 576 sec, second-order plot value): 0.001128
- second-order ([1]; Replicate 2, time 606 sec, second-order plot value): 0.001203
- second-order ([1]; Replicate 3, time 576 sec, second-order plot value): 0.001111
- second-order ([1]; Replicate 3, time 606 sec, second-order plot value): 0.001168
- second-order ([1]; time 0 sec, replicates 1-3): 0.000164 and 0.0001357 and 0.0001139
- second-order ([1]; time 30 sec, replicates 1-3): 0.0002157 and 0.000185 and 0.0002054
- second-order ([1]; time 60 sec, replicates 1-3): 0.0002877 and 0.0002622 and 0.000248
- second-order ([1]; time 91 sec, replicates 1-3): 0.0003403 and 0.0003102 and 0.0003108
- second-order ([1]; time 121 sec, replicates 1-3): 0.0004041 and 0.0003637 (2×)
- second-order ([1]; time 151 sec, replicates 1-3): 0.0004499 and 0.0004039 and 0.0004137
- second-order ([1]; time 182 sec, replicates 1-3): 0.0004951 and 0.0004446 and 0.0004698
- second-order ([1]; time 212 sec, replicates 1-3): 0.0005423 and 0.0004932 and 0.0005191
- second-order ([1]; time 242 sec, replicates 1-3): 0.0005835 and 0.0005476 and 0.0005718
- second-order ([1]; time 273 sec, replicates 1-3): 0.0006281 and 0.0005992 and 0.0006241
- second-order ([1]; time 303 sec, replicates 1-3): 0.0006802 and 0.0006724 and 0.0006773
- second-order ([1]; time 333 sec, replicates 1-3): 0.0007331 and 0.0007182 and 0.0007315
- second-order ([1]; time 364 sec, replicates 1-3): 0.0007799 and 0.0007714 and 0.0007795
- second-order ([1]; time 394 sec, replicates 1-3): 0.0008491 and 0.0008256 and 0.0008268
- second-order ([1]; time 424 sec, replicates 1-3): 0.000877 and 0.0008557 and 0.000888
- second-order ([1]; time 454 sec, replicates 1-3): 0.0009274 and 0.0009198 and 0.0009265
- second-order ([1]; time 485 sec, replicates 1-3): 0.0009424 and 0.0009551 and 0.0009912
- second-order ([1]; time 515 sec, replicates 1-3): 0.001056 and 0.001039 and 0.001045
- second-order ([1]; time 545 sec, replicates 1-3): 0.00112 and 0.001074 and 0.001087
- second-order [2, 3]: 0.0003934 and 0.0003816 and 0.000404
- second-order [2, 4]: 0.0004067 and 0.0003942 and 0.0004162
- second-order [2, 5]: 0.0004206 and 0.0004081 and 0.0004267
- second-order [2, 6]: 0.0004352 and 0.0004273 and 0.0004471
- second-order [2, 7]: 0.0004498 and 0.0004372 and 0.0004612
- second-order ([2]; Time 3794 sec, [B]0 = 250, Replicates 1-3): 0.0004633 and 0.0004542 and 0.0004754
- second-order ([2]; Time 3974 sec, [B]0 = 250, Replicates 1-3): 0.0004793 and 0.0004648 and 0.0004891
- second-order ([2]; Time 4155 sec, [B]0 = 250, Replicates 1-3): 0.0004918 and 0.0004819 and 0.0004992
- second-order ([2]; Time 4336 sec, [B]0 = 250, Replicates 1-3): 0.0005073 and 0.0004944 and 0.000519
- second-order ([2]; Time 4516 sec, [B]0 = 250, Replicates 1-3): 0.0005217 and 0.00051 and 0.0005352
- second-order ([2]; Time 4697 sec, [B]0 = 250, Replicates 1-3): 0.0005368 and 0.0005292 and 0.0005485
- second-order ([2]; Time 4878 sec, [B]0 = 250, Replicates 1-3): 0.0005501 and 0.00054 and 0.0005589
- second-order ([2]; Time 5058 sec, [B]0 = 250, Replicates 1-3): 0.0005616 and 0.0005558 and 0.0005759
- second-order ([2]; Time 5239 sec, [B]0 = 250, Replicates 1-3): 0.0005799 and 0.0005704 and 0.0005876
- second-order ([2]; Time 5419 sec, [B]0 = 250, Replicates 1-3): 0.0005928 and 0.0005784 and 0.0006067
- second-order ([2]; Time 5600 sec, [B]0 = 250, Replicates 1-3): 0.000607 and 0.0005999 and 0.0006197
- second-order ([2]; Time 5781 sec, [B]0 = 250, Replicates 1-3): 0.0006238 and 0.0006104 and 0.000634
- second-order ([2]; Time 5961 sec, [B]0 = 250, Replicates 1-3): 0.0006375 and 0.0006271 and 0.0006509
